Values joined by “and” are separate entries in the source; they are usually repeats but may differ in a detail not shown here. Equal entries are not always repeated.
Tested on: Swiss mice, Sarcoma 180 sc, mean tumor weight T/C
Assay: NCI In Vivo Anticancer Drug Screen. Data for tumor model Sarcoma 180 (subcutaneous) in Swiss mice
Conditions: endpoint: mean tumor weight, higher = larger tumour
Outline: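 Antitumor activity is assessed in mice with transplantable tumors. Treated (T) and vehicle control (C) groups are compared on survival or tumor size.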

[1] = dose: 1.0 mg/kg/injection, schedule: Q01DX007 (ip), vehicle: carboxymethylcellulose (CMC)
[2] = dose: 2.0 mg/kg/injection, schedule: Q01DX007 (ip), vehicle: carboxymethylcellulose (CMC)

N#[N+]c1cnc([O-])[nH]c1=O
T/C [1]: 103 % of control | T/C [2]: 102 % of control | T/C (dose: 4.0 mg/kg/injection, schedule: Q01DX007 (ip), vehicle: carboxymethylcellulose (CMC)): 105 % of control | T/C (dose: 8.0 mg/kg/injection, schedule: Q01DX007 (ip), vehicle: carboxymethylcellulose (CMC)): 95 % of control

CCC1OCCN1C(C)C (centres undefined)
T/C (dose: 20.0 mg/kg/injection, schedule: Q01DX007 (ip), vehicle: other): 80 % of control | T/C (dose: 33.0 mg/kg/injection, schedule: Q01DX007 (ip), vehicle: other): 75 % of control | T/C (dose: 55.5 mg/kg/injection, schedule: Q01DX007 (ip), vehicle: saline): 79 % of control | T/C (dose: 56.0 mg/kg/injection, schedule: Q01DX007 (ip), vehicle: other): 63 % of control | T/C (dose: 83.3 mg/kg/injection, schedule: Q01DX007 (ip), vehicle: saline): 43 % of control | T/C (dose: 84.0 mg/kg/injection, schedule: Q01DX007 (ip), vehicle: other): 49 % of control | T/C (dose: 125.0 mg/kg/injection, schedule: Q01DX007 (ip), vehicle: saline): 21 % of control

NC(=O)c1n[se]nc1N
T/C [1]: 65 % of control | T/C [2]: 99 % of control

[N-]=[N+]=CC(=O)CCC(N)C(=O)O (centres undefined)
T/C (dose: 12.5 mg/kg/injection, schedule: Q#A X014 (ip), vehicle: saline): 45 % of control and 59 % of control | T/C (dose: 25.0 mg/kg/injection, schedule: Q#A X014 (ip), vehicle: saline): 6 % of control and 17 % of control | T/C (dose: 25.0 micrograms/kg/injection, schedule: Q01DX007 (ip), vehicle: carboxymethylcellulose (CMC)): 70 % of control | T/C (dose: 50.0 micrograms/kg/injection, schedule: Q01DX007 (ip), vehicle: carboxymethylcellulose (CMC)): 51 % of control | T/C (dose: 100.0 micrograms/kg/injection, schedule: Q01DX007 (ip), vehicle: carboxymethylcellulose (CMC)): 8 % of control

O=[N+]([O-])c1cccc2nsnc12
T/C (dose: 12.5 mg/kg/injection, schedule: Q01DX007 (ip), vehicle: carboxymethylcellulose (CMC)): 114 % of control | T/C (dose: 25.0 mg/kg/injection, schedule: Q01DX007 (ip), vehicle: carboxymethylcellulose (CMC)): 174 % of control

Nc1nc(=S)c2[nH]cnc2[nH]1
T/C (dose: 0.06 mg/kg/injection, schedule: Q#A X014 (ip), vehicle: carboxymethylcellulose (CMC)): 72 % of control | T/C (dose: 0.12 mg/kg/injection, schedule: Q01DX007 (ip), vehicle: carboxymethylcellulose (CMC)): 78 % of control | T/C (dose: 0.25 mg/kg/injection, schedule: Q01DX007 (ip), vehicle: carboxymethylcellulose (CMC)): 82 % of control | T/C (dose: 0.25 mg/kg/injection, schedule: Q#A X014 (ip), vehicle: carboxymethylcellulose (CMC)): 89 % of control | T/C (dose: 0.5 mg/kg/injection, schedule: Q01DX007 (ip), vehicle: carboxymethylcellulose (CMC)): 97 % of control | T/C (dose: 0.6 mg/kg/injection, schedule: Q01DX007 (ip), vehicle: carboxymethylcellulose (CMC)): 49 % of control | T/C (dose: 0.75 mg/kg/injection, schedule: Q01DX007 (ip), vehicle: carboxymethylcellulose (CMC)): 78 % of control | T/C [1]: 22 % of control and 37 % of control | T/C (dose: 1.0 mg/kg/injection, schedule: Q#A X014 (ip), vehicle: carboxymethylcellulose (CMC)): 46 % of control | T/C (dose: 1.5 mg/kg/injection, schedule: Q01DX007 (ip), vehicle: carboxymethylcellulose (CMC)): 33 % of control | T/C [2]: 37 % of control and 50 % of control | T/C (dose: 3.0 mg/kg/injection, schedule: Q01DX007 (ip), vehicle: carboxymethylcellulose (CMC)): 25 % of control | T/C (dose: 4.0 mg/kg/injection, schedule: Q#A X014 (ip), vehicle: carboxymethylcellulose (CMC)): 23 % of control | T/C (dose: 6.7 mg/kg/injection, schedule: Q01DX007 (ip), vehicle: carboxymethylcellulose (CMC)): 10 % of control and 15 % of control | T/C (dose: 10.0 mg/kg/injection, schedule: Q01DX007 (ip), vehicle: carboxymethylcellulose (CMC)): 3 % of control | T/C (dose: 187.5 mg/kg/injection, schedule: Q#A X014 (ip), vehicle: carboxymethylcellulose (CMC)): 58 % of control | T/C (dose: 375.0 mg/kg/injection, schedule: Q#A X014 (ip), vehicle: carboxymethylcellulose (CMC)): 51 % of control | T/C (dose: 750.0 mg/kg/injection, schedule: Q#A X014 (ip), vehicle: carboxymethylcellulose (CMC)): 35 % of control | T/C (dose: 1500.0 mg/kg/injection, schedule: Q#A X014 (ip), vehicle: carboxymethylcellulose (CMC)): 16 % of control

O=NN1CCN(N=O)CC1
T/C (dose: 5.06 mg/kg/injection, schedule: Q#A X014 (ip), vehicle: carboxymethylcellulose (CMC)): 100 % of control | T/C (dose: 20.25 mg/kg/injection, schedule: Q#A X014 (ip), vehicle: carboxymethylcellulose (CMC)): 101 % of control | T/C (dose: 40.5 mg/kg/injection, schedule: Q#A X014 (ip), vehicle: carboxymethylcellulose (CMC)): 88 % of control

C[C@]12CC[C@@H]3c4ccc(OC(=O)c5ccccc5)cc4CC[C@H]3[C@@H]1CC[C@@H]2O
T/C (dose: 125.0 mg/kg/injection, schedule: Q01DX007 (sc), vehicle: steriod suspending solution): 47 % of control | T/C (dose: 250.0 mg/kg/injection, schedule: Q01DX007 (sc), vehicle: steriod suspending solution): 55 % of control | T/C (dose: 400.0 mg/kg/injection, schedule: Q01DX007 (sc), vehicle: steriod suspending solution): 58 % of control and 83 % of control | T/C (dose: 666.0 mg/kg/injection, schedule: Q01DX007 (sc), vehicle: steriod suspending solution): 59 % of control and 62 % of control

CCSc1nc(Cl)cc(Sc2nc(N)nc3nc[nH]c23)n1
T/C (dose: 9.0 mg/kg/injection, schedule: Q01DX007 (ip), vehicle: other): 75 % of control | T/C (dose: 18.0 mg/kg/injection, schedule: Q01DX007 (ip), vehicle: methylcellulose (MC)): 91 % of control | T/C (dose: 18.0 mg/kg/injection, schedule: Q01DX007 (ip), vehicle: other): 116 % of control | T/C (dose: 36.0 mg/kg/injection, schedule: Q01DX007 (ip), vehicle: methylcellulose (MC)): 95 % of control | T/C (dose: 72.0 mg/kg/injection, schedule: Q01DX007 (ip), vehicle: methylcellulose (MC)): 76 % of control | T/C (dose: 72.0 mg/kg/injection, schedule: Q01DX007 (ip), vehicle: other): 32 % of control | T/C (dose: 124.0 mg/kg/injection, schedule: Q01DX007 (ip), vehicle: carboxymethylcellulose (CMC)): 73 % of control | T/C (dose: 144.0 mg/kg/injection, schedule: Q01DX007 (ip), vehicle: methylcellulose (MC)): 44 % of control and 57 % of control | T/C (dose: 188.0 mg/kg/injection, schedule: Q01DX007 (ip), vehicle: carboxymethylcellulose (CMC)): 44 % of control | T/C (dose: 277.0 mg/kg/injection, schedule: Q01DX007 (ip), vehicle: carboxymethylcellulose (CMC)): 47 % of control | T/C (dose: 281.0 mg/kg/injection, schedule: Q01DX007 (ip), vehicle: carboxymethylcellulose (CMC)): 76 % of control | T/C (dose: 288.0 mg/kg/injection, schedule: Q01DX007 (ip), vehicle: methylcellulose (MC)): 52 % of control and 61 % of control | T/C (dose: 422.0 mg/kg/injection, schedule: Q01DX007 (ip), vehicle: carboxymethylcellulose (CMC)): 35 % of control and 40 % of control | T/C (dose: 435.0 mg/kg/injection, schedule: Q01DX007 (ip), vehicle: methylcellulose (MC)): 100 % of control | T/C (dose: 630.0 mg/kg/injection, schedule: Q01DX007 (ip), vehicle: carboxymethylcellulose (CMC)): 37 % of control | T/C (dose: 945.0 mg/kg/injection, schedule: Q01DX007 (ip), vehicle: carboxymethylcellulose (CMC)): 47 % of control

COc1ccc2c(c[n+](C)c3c4cc5c(cc4ccc23)OCO5)c1OC
T/C (dose: 50.0 mg/kg/injection, schedule: Q01DX007 (ip), vehicle: carboxymethylcellulose (CMC)): 60 % of control | T/C (dose: 100.0 mg/kg/injection, schedule: Q01DX007 (ip), vehicle: carboxymethylcellulose (CMC)): 83 % of control

From PubChem BioAssay AID342 (DTP/NCI, 2004)
